Results as given in US12503476B2, “Ring-fused 2-pyridone compounds, methods for preparation thereof and their use in the treatment and/or prevention of a disease involving gram-positive bacteria” (QURETECH BIO AB, priority 2020, dated 2025).
≈ marks a conversion by molar mass, not a printed value. Read-outs that look alike come from different tables or passages of the source.

Tests used:
MRSA [1] = test: Minimum Bactericidal Concentration (MBC) assay, MRSA; conditions: Staphylococcus aureus, MRSA, read-out: MBC for MRSA, Table 3; compound alone, no antibiotic; MIC cultures plated on BHI; second figure of MIC/MBC; n.d. = activity not observed at the concentrations tested
MRSA 1369 = test: Combined activity with gentamicin, vancomycin or ampicillin, MRSA 1369; type: cell-based, Methicillin-resistant Staphylococcus aureus; conditions: subinhibitory compound 1-4 μM, OD600 24 h
Method: (§1) […]. The concentrations used in the experiments with E. faecalis OG1RF were 16 μg/ml gentamicin, 1 μg/ml vancomycin or 1 μg/ml ampicillin. In experiments where combinations were tested against MRSA 1369, 0.05 μg/ml gentamicin, 1 μg/ml vancomycin or 16 μg/ml ampicillin was used.
(§2) Bacterial cultures (190 μl) at a starting OD=0.001 at OD600 were incubated together with either subinhibitory concentrations of gentamicin/vancomycin/ampicillin or compound alone, or a combination of the two. The cultures (200 μl) were incubated at 37° C. for 24 h. A control sample without compound and gentamicin/vancomycin/ampicillin but containing compound vehicle (DMSO) and gentamicin/vancomycin/ampicillin vehicle (MQ water) was performed the same way. After 24 h, the effect on bacterial growth compared to untreated control samples was determined by measuring optical density at 600 nm with a spectrophotometer.

E. faecalis OG1RF = test: Combined activity with gentamicin, vancomycin or ampicillin, E. faecalis OG1RF; type: cell-based, Enterococcus faecalis; conditions: gentamicin 16 μg/ml
Method: as §1, §2
[…]. MIC/MBC values for the compounds administered alone are also shown for comparison. Unless otherwise stated, the compound was provided in a concentration of 1 μM.

MRSA [2] = test: Minimum Inhibitory Concentration (MIC) assay, MRSA; type: cell-based, Methicillin-resistant Staphylococcus aureus; conditions: Staphylococcus aureus, MRSA, 24 h, Table 3, compound alone, no antibiotic, 37° C., OD600, first figure of MIC/MBC, n.d. = activity not observed at the concentrations tested, read-out: MIC for MRSA
Method: (§3) The cultures (200 μl) were incubated at 37° C. for 24 h. […] The MIC was measured in micromolar concentration, i.e. μM. Objectively, this was determined by measuring the optical density (i.e. OD) of the test cultures at 600 nm using a spectrophotometer. As used herein, OD600 stands for optical density at a wavelength of 600 nm (i.e. 600 nanometers).

E. faecalis = test: Minimum Inhibitory Concentration (MIC) assay, E. faecalis; type: cell-based, Enterococcus faecalis; conditions: for MIC: Enterococcus faecalis, first figure of MIC/MBC, read-out: MIC for E. faecalis
Method: as §3

[3] = subinhibitory compound 1-4 μM, OD600 24 h

SMILES: O=C(O)C12C[C@@H](c3cc(Cl)cc(Cl)c3)C1Sc1c(C3CC3)c(Cc3cccc4ccccc34)cc(=O)n12 (some centres unmarked) [Example 15]
- MBC (MRSA [1]): 4 µM (≈ 2.19 µg/mL)
- MRSA activity, combination with ampicillin compared to ampicillin alone or compound alone (MRSA 1369; ampicillin 16 μg/ml): much larger extent
- MRSA activity, combination with vancomycin compared to vancomycin alone or compound alone (MRSA 1369; vancomycin 1 μg/ml): much larger extent
- OD600 at 24 h when combined with gentamicin (E. faecalis OG1RF; compound 1 μM): OD600 = 0
- Synergistic effect when combined with gentamicin (E. faecalis OG1RF; compound 1 μM, 24 h, n.d. = activity not observed): Yes
- E. faecalis activity, combination with gentamicin compared to gentamicin alone, compound alone and comparative example alone (E. faecalis OG1RF; [3]): much larger extent
- E. faecalis activity, combination with gentamicin compared to the combination of the comparative example and gentamicin (E. faecalis OG1RF; [3]): much larger extent
- MIC (MRSA [2]): 2 µM (≈ 1.1 µg/mL)
- MIC (E. faecalis; 24 h, Table 3, compound alone, no antibiotic, 24 h, 37° C., OD600, n.d. = activity not observed at the concentrations tested): 3 µM (≈ 1.65 µg/mL)
- MIC (E. faecalis; Table 4, compound administered alone, n.d. = activity not observed): 3 µM (≈ 1.65 µg/mL)
- Growth inhibition of the pathogen of interest compared to the compound of Example 14 in WO 2018/229141 (E. faecalis; conclusion from Table 3 (E. faecalis and MRSA), compound alone): substantially similar extent or to a higher extent
